In the CheMixHub viscosity set:

Test: xn = mol fraction of the nth substance listed

O=CN1CCOCC1 + Brc1ccccc1
viscosity [mPa·s], 101 kPa
Details	x1 = 0.1046	x1 = 0.2081	x1 = 0.3106	x1 = 0.412	x1 = 0.5124	x1 = 0.6119	x1 = 0.7103	x1 = 0.8078	x1 = 0.9044
303.15 K	1.051	1.188	1.392	1.666	2.029	2.502	3.141	3.952	5.052
308.15 K	1.002	1.119	1.297	1.538	1.858	2.274	2.809	3.511	4.419
313.15 K	0.953	1.057	1.22	1.442	1.727	2.105	2.585	3.211	4.012

C=C(C)C(=O)OCCCC + C1CCCCC1
viscosity [mPa·s], 101 kPa
Details	298.15 K	308.15 K
x1 = 0.056	0.866	0.737
x1 = 0.1555	0.835	0.711
x1 = 0.2562	0.812	0.692
x1 = 0.3534	0.797	0.68
x1 = 0.4548	0.789	0.673
x1 = 0.4924	0.788	0.673
x1 = 0.5528	0.788	0.673
x1 = 0.6497	0.794	0.678
x1 = 0.7645	0.81	0.692
x1 = 0.8529	0.83	0.708
x1 = 0.9568	0.861	0.735

NCc1ccccc1 + C1CCOC1
303.15 K, 101 kPa
Details	viscosity [mPa·s]
x1 = 0.0768	0.522
x1 = 0.1577	0.576
x1 = 0.2429	0.636
x1 = 0.333	0.705
x1 = 0.4282	0.785
x1 = 0.529	0.876
x1 = 0.636	0.981
x1 = 0.7497	1.104
x1 = 0.8708	1.247

NCc1ccccc1 + C1COCCO1
303.15 K, 101 kPa
Details	viscosity [mPa·s]
x1 = 0.0802	1.116
x1 = 0.164	1.158
x1 = 0.2516	1.199
x1 = 0.3434	1.238
x1 = 0.4396	1.276
x1 = 0.5406	1.311
x1 = 0.6467	1.343
x1 = 0.7584	1.372
x1 = 0.8759	1.396

C=C(C)C(=O)OCCCC + CC#N
viscosity [mPa·s], 101 kPa
Details	298.15 K	303.15 K	308.15 K	313.15 K	318.15 K
x2 = 0.0681	0.8436	0.7784	0.7223	0.6777	0.6423
x2 = 0.1359	0.8101	0.7487	0.6958	0.6537	0.6202
x2 = 0.1976	0.7793	0.7213	0.6713	0.6314	0.5995
x2 = 0.2728	0.7411	0.6872	0.6407	0.6035	0.5735
x2 = 0.3442	0.7043	0.6543	0.6111	0.5764	0.5483
x2 = 0.4143	0.6677	0.6215	0.5815	0.5492	0.5229
x2 = 0.4658	0.6405	0.5971	0.5594	0.5289	0.5039
x2 = 0.5243	0.6094	0.5691	0.534	0.5055	0.482
x2 = 0.5649	0.5876	0.5495	0.5162	0.4891	0.4665
x2 = 0.639	0.5475	0.5133	0.4834	0.4587	0.4379
x2 = 0.7112	0.508	0.4776	0.4508	0.4285	0.4095
x2 = 0.7836	0.468	0.4413	0.4178	0.3978	0.3805
x2 = 0.8558	0.4277	0.4048	0.3844	0.3668	0.3512
x2 = 0.928	0.3871	0.3679	0.3506	0.3353	0.3214

CCC(=O)c1ccccc1 + CC#N
308.15 K, 101 kPa
Details	viscosity [mPa·s]
x1 = 0.0418	0.3347
x1 = 0.0922	0.3774
x1 = 0.1459	0.4272
x1 = 0.2084	0.4875
x1 = 0.2804	0.5679
x1 = 0.3757	0.6605
x1 = 0.4796	0.7806
x1 = 0.6093	0.9478
x1 = 0.7791	1.188
x1 = 0.9397	1.426

OCCO + CC#N
viscosity [mPa·s], 100 kPa
Details	x2 = 0.1016	x2 = 0.2004	x2 = 0.3019	x2 = 0.3984	x2 = 0.4901	x2 = 0.6353	x2 = 0.6987	x2 = 0.8061	x2 = 0.8984
293.15 K	13	8.4	5.53	3.48	2.4	1.35	1.06	0.71	0.51
298.15 K	11.2	7.41	4.87	3.19	2.21	1.25	0.98	0.66	0.48
303.15 K	9.25	6.17	4.25	2.85	2.01	1.17	0.93	0.63	0.45

S=C=S + CC(C)=O
viscosity [mPa·s]
Details	293.15 K	298.15 K
101 kPa, x1 = 0.035	0.32	0.3065
101 kPa, x1 = 0.107	0.316	0.3025
101 kPa, x1 = 0.167	0.315	0.3015
101 kPa, x1 = 0.202	0.314	0.301
101 kPa, x1 = 0.304	0.316	0.3015
101 kPa, x1 = 0.408	0.319	–
101 kPa, x1 = 0.498	0.324	0.31
101 kPa, x1 = 0.633	0.3325	0.3185
101 kPa, x1 = 0.762	0.343	–
101 kPa, x1 = 0.89	0.354	0.3365
101.33 kPa, x2 = 0.1384	–	0.3361
101.33 kPa, x2 = 0.2716	–	0.3258
101.33 kPa, x2 = 0.3443	–	0.3242
101.33 kPa, x2 = 0.4624	–	0.3103
101.33 kPa, x2 = 0.5524	–	0.3035
101.33 kPa, x2 = 0.6431	–	0.3003
101.33 kPa, x2 = 0.7358	–	0.2975
101.33 kPa, x2 = 0.8389	–	0.2974
101.33 kPa, x2 = 0.9171	–	0.2993

NCc1ccccc1 + CC(C)CCO
viscosity [mPa·s], 101.33 kPa
Details	x1 = 0.0999	x1 = 0.1999	x1 = 0.3	x1 = 0.4	x1 = 0.5	x1 = 0.6	x1 = 0.7	x1 = 0.8	x1 = 0.9
298.15 K	3.425	3.149	2.901	2.684	2.474	2.284	2.103	1.941	1.806
303.15 K	2.914	2.672	2.455	2.259	2.099	1.937	1.803	1.683	1.582
308.15 K	2.536	2.319	2.142	1.979	1.833	1.706	1.602	1.51	1.441

CC(C)NC(C)C + CC(C)CO
viscosity [mPa·s], 100 kPa
Details	298.15 K	303.15 K	308.15 K
x1 = 0.0559	2.916	2.467	2.005
x1 = 0.1015	2.616	2.232	1.833
x1 = 0.1519	2.295	1.98	1.662
x1 = 0.2069	1.995	1.738	1.459
x1 = 0.2516	1.765	1.549	1.319
x1 = 0.3055	1.507	1.346	1.155
x1 = 0.3944	1.194	1.067	0.931
x1 = 0.4988	0.926	0.837	0.743
x1 = 0.6017	0.73	0.674	0.607
x1 = 0.7131	0.586	0.553	0.509
x1 = 0.8018	0.504	0.485	0.448
x1 = 0.865	0.455	0.441	0.409
x1 = 0.9062	0.433	0.419	0.395
x1 = 0.9423	0.409	0.396	0.379

CC(C)NC(C)C + CC(C)O
viscosity [mPa·s], 100 kPa
Details	298.15 K	303.15 K	308.15 K
x1 = 0.0499	1.789	1.565	1.397
x1 = 0.1033	1.565	1.393	1.253
x1 = 0.1405	1.437	1.28	1.153
x1 = 0.2062	1.245	1.108	1.004
x1 = 0.2498	1.123	1.012	0.922
x1 = 0.303	1.003	0.904	0.825
x1 = 0.4121	0.809	0.735	0.677
x1 = 0.4955	0.698	0.639	0.593
x1 = 0.5984	0.592	0.551	0.513
x1 = 0.6974	0.52	0.498	0.466
x1 = 0.7902	0.468	0.447	0.421
x1 = 0.8632	0.434	0.419	0.398
x1 = 0.9067	0.412	0.401	0.382
x1 = 0.9459	0.397	0.388	0.3694

NCc1ccccc1 + CCC(C)(C)O
viscosity [mPa·s], 101.33 kPa
Details	x1 = 0.1	x1 = 0.2001	x1 = 0.3	x1 = 0.4	x1 = 0.5	x1 = 0.6	x1 = 0.6999	x1 = 0.7994	x1 = 0.8998
298.15 K	3.228	2.988	2.781	2.576	2.394	2.223	2.067	1.927	1.792
303.15 K	2.641	2.463	2.289	2.143	1.995	1.882	1.773	1.668	1.578
308.15 K	2.193	2.043	1.919	1.793	1.696	1.609	1.533	1.468	1.422
